Among the data in ChEMBL document CHEMBL5653631, “A Potent and Selective ULK1 Inhibitor Suppresses Autophagy and Sensitizes Cancer Cells to Nutrient Stress” (iScience, 2018) are inhibition and fold change (FC) values, retold here.

Assay [1] deals with Casein kinase I isoform gamma-2 (Homo sapiens) (UniProt P78368). Briefly: Inhibition of human recombinant CK1g2 at 40 nM in presence of ATP by radiometric assay relative to control.
Assay [2] addresses T1, Serine/threonine-protein kinase DCLK3 (Homo sapiens) (UniProt Q9C098).
T1 sequence (whole entry): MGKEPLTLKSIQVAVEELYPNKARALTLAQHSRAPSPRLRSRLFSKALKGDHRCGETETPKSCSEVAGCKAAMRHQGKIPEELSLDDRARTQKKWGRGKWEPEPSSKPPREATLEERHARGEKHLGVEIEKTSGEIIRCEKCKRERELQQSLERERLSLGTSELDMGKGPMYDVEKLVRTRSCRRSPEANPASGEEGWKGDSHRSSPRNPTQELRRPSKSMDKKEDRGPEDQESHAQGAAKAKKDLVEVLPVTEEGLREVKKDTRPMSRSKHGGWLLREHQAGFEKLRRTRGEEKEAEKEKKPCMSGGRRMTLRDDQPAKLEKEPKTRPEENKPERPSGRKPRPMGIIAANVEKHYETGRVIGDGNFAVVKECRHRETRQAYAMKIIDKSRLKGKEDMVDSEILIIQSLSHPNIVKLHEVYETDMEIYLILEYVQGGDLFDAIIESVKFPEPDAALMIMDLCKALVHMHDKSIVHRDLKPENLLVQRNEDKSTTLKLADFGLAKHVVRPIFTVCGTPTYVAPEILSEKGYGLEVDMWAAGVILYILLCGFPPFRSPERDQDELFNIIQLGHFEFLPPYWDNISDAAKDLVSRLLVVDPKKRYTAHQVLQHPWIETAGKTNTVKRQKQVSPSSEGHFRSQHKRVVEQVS
The assay is described as follows: Inhibition of human recombinant DCAMKL3 at 40 nM in presence of ATP by radiometric assay relative to control.

Assay [3] deals with Serine/threonine-protein kinase WNK2 (Homo sapiens) (UniProt Q9Y3S1). Briefly: Inhibition of human recombinant Wnk2 at 40 nM in presence of ATP by radiometric assay relative to control.
Serine/threonine-protein kinase WNK2 (Homo sapiens), sequence (Q9Y3S1 whole entry): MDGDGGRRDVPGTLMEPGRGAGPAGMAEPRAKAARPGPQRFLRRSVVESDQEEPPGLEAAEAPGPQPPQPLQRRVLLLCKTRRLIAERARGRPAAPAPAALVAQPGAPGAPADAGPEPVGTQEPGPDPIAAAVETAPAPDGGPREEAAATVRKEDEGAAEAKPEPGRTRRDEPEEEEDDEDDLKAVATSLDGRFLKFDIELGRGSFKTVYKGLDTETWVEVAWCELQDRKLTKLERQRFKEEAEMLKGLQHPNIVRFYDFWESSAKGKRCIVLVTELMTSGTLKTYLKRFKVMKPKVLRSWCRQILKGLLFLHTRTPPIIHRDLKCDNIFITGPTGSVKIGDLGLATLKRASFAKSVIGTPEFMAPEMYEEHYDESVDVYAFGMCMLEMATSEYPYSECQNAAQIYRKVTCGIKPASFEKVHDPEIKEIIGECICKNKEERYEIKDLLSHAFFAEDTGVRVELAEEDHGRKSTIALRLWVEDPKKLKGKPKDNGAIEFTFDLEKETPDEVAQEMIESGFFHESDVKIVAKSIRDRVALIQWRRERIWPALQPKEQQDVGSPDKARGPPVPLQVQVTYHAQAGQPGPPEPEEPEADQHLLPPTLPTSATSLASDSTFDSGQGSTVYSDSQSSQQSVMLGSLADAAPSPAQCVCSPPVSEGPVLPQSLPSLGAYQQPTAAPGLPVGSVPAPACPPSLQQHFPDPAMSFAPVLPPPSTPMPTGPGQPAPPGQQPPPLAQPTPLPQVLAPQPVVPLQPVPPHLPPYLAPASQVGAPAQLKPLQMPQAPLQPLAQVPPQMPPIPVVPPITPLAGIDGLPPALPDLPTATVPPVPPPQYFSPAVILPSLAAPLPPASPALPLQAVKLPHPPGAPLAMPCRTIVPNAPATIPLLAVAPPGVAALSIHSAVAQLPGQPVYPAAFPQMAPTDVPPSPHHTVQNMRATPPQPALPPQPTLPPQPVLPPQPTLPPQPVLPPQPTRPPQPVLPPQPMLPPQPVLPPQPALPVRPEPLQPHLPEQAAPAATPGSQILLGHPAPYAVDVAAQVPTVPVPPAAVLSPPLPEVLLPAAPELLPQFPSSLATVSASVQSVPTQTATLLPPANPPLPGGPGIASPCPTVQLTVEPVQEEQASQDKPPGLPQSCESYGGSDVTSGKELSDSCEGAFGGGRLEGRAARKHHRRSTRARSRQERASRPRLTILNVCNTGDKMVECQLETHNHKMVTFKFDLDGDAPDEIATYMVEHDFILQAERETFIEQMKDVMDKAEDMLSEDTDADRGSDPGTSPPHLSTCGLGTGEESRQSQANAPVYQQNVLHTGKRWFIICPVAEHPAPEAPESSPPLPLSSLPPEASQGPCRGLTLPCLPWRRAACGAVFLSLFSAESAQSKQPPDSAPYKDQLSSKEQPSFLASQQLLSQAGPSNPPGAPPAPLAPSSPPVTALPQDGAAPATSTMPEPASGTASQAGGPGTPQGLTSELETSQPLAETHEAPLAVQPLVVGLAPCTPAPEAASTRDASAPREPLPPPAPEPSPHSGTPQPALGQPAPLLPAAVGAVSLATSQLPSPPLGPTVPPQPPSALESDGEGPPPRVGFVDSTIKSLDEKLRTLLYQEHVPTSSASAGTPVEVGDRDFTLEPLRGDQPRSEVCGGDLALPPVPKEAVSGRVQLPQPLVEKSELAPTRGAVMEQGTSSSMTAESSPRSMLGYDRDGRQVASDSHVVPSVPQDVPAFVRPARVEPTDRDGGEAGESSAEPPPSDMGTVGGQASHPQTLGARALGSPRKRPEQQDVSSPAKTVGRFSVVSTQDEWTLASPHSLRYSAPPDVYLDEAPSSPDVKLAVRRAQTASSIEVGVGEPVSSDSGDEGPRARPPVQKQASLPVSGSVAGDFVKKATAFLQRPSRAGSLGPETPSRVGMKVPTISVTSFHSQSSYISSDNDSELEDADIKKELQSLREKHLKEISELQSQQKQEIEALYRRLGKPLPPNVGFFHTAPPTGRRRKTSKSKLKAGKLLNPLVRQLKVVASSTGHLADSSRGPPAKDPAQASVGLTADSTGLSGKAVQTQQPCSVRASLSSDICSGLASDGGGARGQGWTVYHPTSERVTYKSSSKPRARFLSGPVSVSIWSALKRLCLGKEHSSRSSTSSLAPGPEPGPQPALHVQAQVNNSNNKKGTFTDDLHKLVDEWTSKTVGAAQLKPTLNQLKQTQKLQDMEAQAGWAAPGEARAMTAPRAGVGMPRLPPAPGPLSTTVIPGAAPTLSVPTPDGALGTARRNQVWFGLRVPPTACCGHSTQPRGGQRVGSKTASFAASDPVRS
The target in assay [4] is Calcium/calmodulin-dependent protein kinase type II subunit alpha (Homo sapiens) (UniProt Q9UQM7). The assay is described as follows: Inhibition of human recombinant CaMK2a at 40 nM related to control ULK1.
Calcium/calmodulin-dependent protein kinase type II subunit alpha (Homo sapiens), sequence (Q9UQM7 whole entry): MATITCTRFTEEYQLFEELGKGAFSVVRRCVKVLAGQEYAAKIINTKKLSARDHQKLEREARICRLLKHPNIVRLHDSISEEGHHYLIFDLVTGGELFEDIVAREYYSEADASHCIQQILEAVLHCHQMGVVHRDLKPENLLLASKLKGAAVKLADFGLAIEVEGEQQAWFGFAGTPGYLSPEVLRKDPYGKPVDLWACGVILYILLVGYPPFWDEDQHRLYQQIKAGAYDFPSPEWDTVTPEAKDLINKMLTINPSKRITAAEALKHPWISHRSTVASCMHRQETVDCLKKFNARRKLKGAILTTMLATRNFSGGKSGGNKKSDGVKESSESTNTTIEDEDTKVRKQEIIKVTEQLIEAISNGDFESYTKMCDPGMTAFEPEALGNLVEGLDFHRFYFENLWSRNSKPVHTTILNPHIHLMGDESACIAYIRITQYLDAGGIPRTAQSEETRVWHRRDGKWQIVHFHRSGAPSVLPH
In assay [5] the target is T2, Serine/threonine-protein kinase ULK2 (Homo sapiens) (UniProt Q8IYT8).
T2 sequence (whole entry): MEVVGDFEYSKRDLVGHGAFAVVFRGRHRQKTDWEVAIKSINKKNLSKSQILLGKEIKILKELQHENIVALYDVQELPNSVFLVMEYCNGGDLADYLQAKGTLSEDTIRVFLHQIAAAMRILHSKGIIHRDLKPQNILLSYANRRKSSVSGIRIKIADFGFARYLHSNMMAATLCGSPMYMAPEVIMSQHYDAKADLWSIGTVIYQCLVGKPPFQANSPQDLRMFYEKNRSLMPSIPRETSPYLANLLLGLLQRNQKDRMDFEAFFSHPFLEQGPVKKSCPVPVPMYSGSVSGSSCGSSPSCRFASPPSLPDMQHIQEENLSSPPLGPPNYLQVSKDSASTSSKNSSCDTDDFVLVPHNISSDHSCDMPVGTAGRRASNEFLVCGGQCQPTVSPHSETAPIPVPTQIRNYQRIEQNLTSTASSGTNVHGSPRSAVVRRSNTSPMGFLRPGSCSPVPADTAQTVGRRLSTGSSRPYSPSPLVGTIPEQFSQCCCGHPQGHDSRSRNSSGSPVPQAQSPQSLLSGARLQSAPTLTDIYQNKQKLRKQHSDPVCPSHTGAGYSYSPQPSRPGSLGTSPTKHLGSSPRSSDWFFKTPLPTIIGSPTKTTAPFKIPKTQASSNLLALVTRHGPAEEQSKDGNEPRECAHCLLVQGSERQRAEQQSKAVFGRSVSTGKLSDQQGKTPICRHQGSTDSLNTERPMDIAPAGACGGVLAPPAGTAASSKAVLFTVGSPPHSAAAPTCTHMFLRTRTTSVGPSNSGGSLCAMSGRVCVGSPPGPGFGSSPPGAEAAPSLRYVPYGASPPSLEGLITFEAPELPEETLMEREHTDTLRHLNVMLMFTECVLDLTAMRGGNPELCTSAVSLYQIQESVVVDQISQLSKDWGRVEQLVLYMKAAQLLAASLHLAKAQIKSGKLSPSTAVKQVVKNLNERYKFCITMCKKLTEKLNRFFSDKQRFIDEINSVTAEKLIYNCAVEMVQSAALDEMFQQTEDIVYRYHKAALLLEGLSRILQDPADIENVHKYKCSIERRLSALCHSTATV
Briefly: Inhibition of human recombinant ULK2 at 40 nM related to control ULK1.

In assay [6] the target is Tyrosine-protein kinase Lyn (Homo sapiens) (UniProt P07948). Briefly: Inhibition of human recombinant LYN at 500 nM in presence of ATP by radiometric assay relative to control.
Tyrosine-protein kinase Lyn (Homo sapiens), sequence (P07948 2-512 limits assumed): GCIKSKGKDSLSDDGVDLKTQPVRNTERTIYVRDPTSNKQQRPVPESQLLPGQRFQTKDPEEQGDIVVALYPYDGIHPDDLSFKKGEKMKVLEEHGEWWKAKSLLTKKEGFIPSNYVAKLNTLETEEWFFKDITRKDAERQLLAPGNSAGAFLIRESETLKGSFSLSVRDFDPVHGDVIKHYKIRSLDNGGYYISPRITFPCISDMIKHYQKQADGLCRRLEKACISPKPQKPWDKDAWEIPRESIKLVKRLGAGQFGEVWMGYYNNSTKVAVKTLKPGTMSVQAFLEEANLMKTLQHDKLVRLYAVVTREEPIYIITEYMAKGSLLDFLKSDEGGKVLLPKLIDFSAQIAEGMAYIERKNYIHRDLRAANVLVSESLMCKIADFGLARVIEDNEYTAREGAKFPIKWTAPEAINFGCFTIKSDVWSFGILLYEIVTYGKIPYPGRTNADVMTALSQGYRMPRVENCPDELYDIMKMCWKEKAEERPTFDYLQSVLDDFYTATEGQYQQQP
The target of assay [7] is T3, Interleukin-1 receptor-associated kinase 4 (Homo sapiens) (UniProt Q9NWZ3).
T3 sequence (whole entry): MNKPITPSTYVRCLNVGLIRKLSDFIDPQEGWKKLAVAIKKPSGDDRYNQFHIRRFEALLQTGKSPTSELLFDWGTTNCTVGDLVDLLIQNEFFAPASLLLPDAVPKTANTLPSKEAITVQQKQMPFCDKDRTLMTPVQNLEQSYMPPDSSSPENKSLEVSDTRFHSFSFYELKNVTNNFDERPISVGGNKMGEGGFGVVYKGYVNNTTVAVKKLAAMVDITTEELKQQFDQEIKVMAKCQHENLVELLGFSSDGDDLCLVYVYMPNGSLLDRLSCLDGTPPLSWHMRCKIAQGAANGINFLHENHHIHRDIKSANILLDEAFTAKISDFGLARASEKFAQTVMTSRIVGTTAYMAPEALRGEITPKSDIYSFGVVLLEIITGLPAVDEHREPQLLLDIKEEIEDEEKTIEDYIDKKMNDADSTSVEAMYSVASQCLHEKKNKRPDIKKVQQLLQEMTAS
Briefly: Inhibition of human recombinant IRAK4 at 500 nM related to control ULK1.

Assay [8] concerns the target cAMP-dependent protein kinase catalytic subunit alpha (Homo sapiens) (UniProt P17612). The assay is described as follows: Inhibition of human recombinant PKACalpha at 15 nM in presence of ATP by radiometric assay relative to control.
In assay [9] the target is Epidermal growth factor receptor (Homo sapiens) (UniProt P00533). Briefly: Inhibition of human recombinant EGFR at 15 nM related to control ULK1.
Epidermal growth factor receptor (Homo sapiens), sequence (P00533 whole entry): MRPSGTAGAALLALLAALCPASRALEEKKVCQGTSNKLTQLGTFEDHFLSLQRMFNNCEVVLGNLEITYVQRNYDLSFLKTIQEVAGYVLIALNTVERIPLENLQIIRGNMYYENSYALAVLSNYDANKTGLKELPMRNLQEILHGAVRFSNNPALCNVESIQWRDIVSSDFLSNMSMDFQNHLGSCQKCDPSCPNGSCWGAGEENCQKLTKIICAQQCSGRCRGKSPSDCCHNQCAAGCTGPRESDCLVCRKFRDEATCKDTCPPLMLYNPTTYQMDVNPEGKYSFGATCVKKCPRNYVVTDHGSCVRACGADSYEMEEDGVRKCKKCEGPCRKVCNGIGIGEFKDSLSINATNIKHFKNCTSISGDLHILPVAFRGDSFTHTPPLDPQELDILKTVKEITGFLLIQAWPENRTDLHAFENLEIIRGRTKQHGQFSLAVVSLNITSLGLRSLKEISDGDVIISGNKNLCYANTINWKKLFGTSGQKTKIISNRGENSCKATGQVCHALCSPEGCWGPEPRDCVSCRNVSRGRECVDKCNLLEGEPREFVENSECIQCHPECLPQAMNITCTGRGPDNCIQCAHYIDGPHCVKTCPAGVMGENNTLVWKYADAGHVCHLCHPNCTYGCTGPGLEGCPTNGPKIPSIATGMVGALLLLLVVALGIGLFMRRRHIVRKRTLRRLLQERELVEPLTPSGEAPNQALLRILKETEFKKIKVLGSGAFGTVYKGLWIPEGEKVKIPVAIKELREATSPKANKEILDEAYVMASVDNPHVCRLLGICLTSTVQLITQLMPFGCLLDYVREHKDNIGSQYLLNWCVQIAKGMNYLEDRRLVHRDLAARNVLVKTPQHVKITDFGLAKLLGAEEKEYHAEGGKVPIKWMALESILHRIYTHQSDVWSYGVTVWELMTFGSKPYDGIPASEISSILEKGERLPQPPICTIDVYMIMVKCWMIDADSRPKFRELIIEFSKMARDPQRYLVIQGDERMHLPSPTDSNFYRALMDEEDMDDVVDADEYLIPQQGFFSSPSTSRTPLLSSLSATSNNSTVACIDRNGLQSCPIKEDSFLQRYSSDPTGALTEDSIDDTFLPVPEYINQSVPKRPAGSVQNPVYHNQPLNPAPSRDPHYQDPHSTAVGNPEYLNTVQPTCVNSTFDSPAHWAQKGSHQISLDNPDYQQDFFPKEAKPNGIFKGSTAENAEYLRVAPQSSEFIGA

Casein kinase I isoform gamma-2 (Homo sapiens), sequence (P78368 whole entry, looked up, canonical isoform): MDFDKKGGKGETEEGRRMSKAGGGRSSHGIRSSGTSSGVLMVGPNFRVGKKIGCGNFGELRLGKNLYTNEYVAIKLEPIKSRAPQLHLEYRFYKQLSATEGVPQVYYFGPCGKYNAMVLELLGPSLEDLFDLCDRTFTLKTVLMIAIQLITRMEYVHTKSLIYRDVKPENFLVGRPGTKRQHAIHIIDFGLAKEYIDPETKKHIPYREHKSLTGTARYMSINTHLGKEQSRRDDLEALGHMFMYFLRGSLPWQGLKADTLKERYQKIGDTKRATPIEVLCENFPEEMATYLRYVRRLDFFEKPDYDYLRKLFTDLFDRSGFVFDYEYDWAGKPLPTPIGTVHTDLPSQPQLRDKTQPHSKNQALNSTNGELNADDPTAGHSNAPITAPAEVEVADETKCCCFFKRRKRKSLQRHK

For orientation: inhibition means the drop in the measured response relative to a control, in per cent. For `O=C(N[C@@H](C1CC1)C(F)(F)F)c1cc(-c2cnn3cc(-c4ccc(F)cc4)cnc23)cs1`, the results for the inhibition in assay [1], in assay [2] and in [3] were 5%, 2% and 3%, respectively. Besides, the fold change (FC) in [4] came to 0; in [5], 0.63.
In the case of `CNC(=O)c1ccccc1Oc1nc(Nc2cc(OC)c(OC)c(OC)c2)ncc1Br`, the inhibition in assay [6] turned out to be 30%. Further, the fold change (FC) in assay [7] is 0.08.
`CC(C)[C@H](NC(=O)c1cc(-c2cnn3cc(-c4ccc(OCCN5CCCCC5)cc4)cnc23)cs1)C(F)(F)F`: in assay [8], the inhibition is 0%. In addition, in assay [9], the fold change (FC) amounted to 0.03.
